Data from ChEMBL document CHEMBL2434896, “Carbonic anhydrase inhibitors. Synthesis of heterocyclic 4-substituted pyridine-3-sulfonamide derivatives and their inhibition of the human cytosolic isozymes I and II and transmembrane tumor-associated isozymes IX and XII” (Eur J Med Chem, 2013).
Activity calls are given as the source filed them. The rule behind the calls is not given here.

Assays:
[1] = test system: IGROV-1; test: Growth inhibition of human IGROV1 cells at 10 uM after 48 hrs by sulforhodamine B assay; format: functional
[2] = test system: T47D; test: Growth inhibition of human T47D cells at 10 uM after 48 hrs by sulforhodamine B assay; format: functional
[3] = test system: Hs-578T; test: Growth inhibition of human Hs 578T cells at 10 uM after 48 hrs by sulforhodamine B assay; format: functional
[4] = test system: NCI-H460; test: Growth inhibition of human NCI-H460 cells at 10 uM after 48 hrs by sulforhodamine B assay; format: functional
[5] = test system: K562; test: Growth inhibition of human K562 cells at 10 uM after 48 hrs by sulforhodamine B assay; format: functional; conditions: K562, 48 h, read-out: GI
[6] = test system: SF-295; test: Growth inhibition of human SF295 cells at 10 uM after 48 hrs by sulforhodamine B assay; format: functional
[7] = test system: SK-MEL-5; test: Growth inhibition of human SK-MEL-5 cells at 10 uM after 48 hrs by sulforhodamine B assay; format: functional
[8] = test system: HT-29; test: Growth inhibition of human HT-29 cells at 10 uM after 48 hrs by sulforhodamine B assay; format: functional
[9] = test system: DU-145; test: Growth inhibition of human DU145 cells at 10 uM after 48 hrs by sulforhodamine B assay; format: functional
[10] = test system: HOP-62; test: Growth inhibition of human HOP62 cells at 10 uM after 48 hrs by sulforhodamine B assay; format: functional
[11] = test system: A549; test: Growth inhibition of human A549/ATCC cells at 10 uM after 48 hrs by sulforhodamine B assay; format: functional
[12] = test system: HCT-15; test: Growth inhibition of human HCT15 cells at 10 uM after 48 hrs by sulforhodamine B assay; format: functional
[13] = test system: A498; test: Growth inhibition of human A498 cells at 10 uM after 48 hrs by sulforhodamine B assay; format: functional; conditions: A498, 48 h, read-out: GI
[14] = test system: ACHN; test: Growth inhibition of human ACHN cells at 10 uM after 48 hrs by sulforhodamine B assay; format: functional
[15] = test system: COLO 205; test: Growth inhibition of human COLO205 cells at 10 uM after 48 hrs by sulforhodamine B assay; format: functional
[16] = test system: NCI/ADR-RES; test: Growth inhibition of human NCI-ADR-RES cells at 10 uM after 48 hrs by sulforhodamine B assay; format: functional
[17] = test system: OVCAR-8; test: Growth inhibition of human OVCAR8 cells at 10 uM after 48 hrs by sulforhodamine B assay; format: functional
[18] = test system: UACC-257; test: Growth inhibition of human UACC257 cells at 10 uM after 48 hrs by sulforhodamine B assay; format: functional
[19] = test system: SK-MEL-28; test: Growth inhibition of human SK-MEL-28 cells at 10 uM after 48 hrs by sulforhodamine B assay; format: functional, cell-based
[20] = test system: SN12C; test: Growth inhibition of human SN12C cells at 10 uM after 48 hrs by sulforhodamine B assay; format: functional
[21] = test system: SR; test: Growth inhibition of human SR cells at 10 uM after 48 hrs by sulforhodamine B assay; format: functional; conditions: read-out: GI
[22] = test system: NCI-H226; test: Growth inhibition of human NCI-H226 cells at 10 uM after 48 hrs by sulforhodamine B assay; format: functional; conditions: NCI-H226, 48 h, read-out: GI
[23] = test system: UO-31; test: Growth inhibition of human UO31 cells at 10 uM after 48 hrs by sulforhodamine B assay; format: functional; conditions: UO-31, 48 h, read-out: GI
[24] = test system: MDA-MB-435; test: Growth inhibition of human MDA-MB-435 cells at 10 uM after 48 hrs by sulforhodamine B assay; format: functional
[25] = test system: RXF 393; test: Growth inhibition of human RXF393 cells at 10 uM after 48 hrs by sulforhodamine B assay; format: functional
[26] = test system: HL-60(TB); test: Growth inhibition of human HL-60(TB) cells at 10 uM after 48 hrs by sulforhodamine B assay; format: functional; conditions: HL-60, 48 h, read-out: GI
[27] = test system: SNB-19; test: Growth inhibition of human SNB19 cells at 10 uM after 48 hrs by sulforhodamine B assay; format: functional
[28] = test system: SK-OV-3; test: Growth inhibition of human SKOV3 cells at 10 uM after 48 hrs by sulforhodamine B assay; format: functional
[29] = test system: M14; test: Growth inhibition of human M14 cells at 10 uM after 48 hrs by sulforhodamine B assay; format: functional; conditions: M14, 48 h, read-out: GI
[30] = test system: SF-539; test: Growth inhibition of human SF539 cells at 10 uM after 48 hrs by sulforhodamine B assay; format: functional; conditions: SF-539, 48 h, read-out: GI
[31] = test system: NCI-H322M; test: Growth inhibition of human NCI-H322M cells at 10 uM after 48 hrs by sulforhodamine B assay; format: functional
[32] = test system: Malme-3M; test: Growth inhibition of human MALME-3M cells at 10 uM after 48 hrs by sulforhodamine B assay; format: functional; conditions: read-out: GI
[33] = test system: OVCAR-4; test: Growth inhibition of human OVCAR4 cells at 10 uM after 48 hrs by sulforhodamine B assay; format: functional
[34] = test system: SW-620; test: Growth inhibition of human SW620 cells at 10 uM after 48 hrs by sulforhodamine B assay; format: functional
[35] = test system: KM12; test: Growth inhibition of human KM12 cells at 10 uM after 48 hrs by sulforhodamine B assay; format: functional; conditions: KM12, 48 h, read-out: GI
[36] = test system: SNB-75; test: Growth inhibition of human SNB75 cells at 10 uM after 48 hrs by sulforhodamine B assay; format: functional; conditions: SNB-75, 48 h, read-out: GI
[37] = test system: TK-10; test: Growth inhibition of human TK10 cells at 10 uM after 48 hrs by sulforhodamine B assay; format: functional
[38] = test system: LOX IMVI; test: Growth inhibition of human LOXIMVI cells at 10 uM after 48 hrs by sulforhodamine B assay; format: functional; conditions: read-out: GI
[39] = test system: NCI-H23; test: Growth inhibition of human NCI-H23 cells at 10 uM after 48 hrs by sulforhodamine B assay; format: functional; conditions: NCI-H23, 48 h, read-out: GI
[40] = target: Carbonic anhydrase 9 (Homo sapiens, UniProt Q16790); test: Inhibition of human carbonic anhydrase 9 after 15 mins by stopped flow CO2 hydration assay
[41] = test system: EKVX; test: Growth inhibition of human EKVX cells at 10 uM after 48 hrs by sulforhodamine B assay; format: functional
[42] = test system: U-251; test: Growth inhibition of human U251 cells at 10 uM after 48 hrs by sulforhodamine B assay; format: functional
[43] = test system: BT-549; test: Growth inhibition of human BT549 cells at 10 uM after 48 hrs by sulforhodamine B assay; format: functional; conditions: BT-549, 48 h, read-out: GI
[44] = test system: NCI-H522; test: Growth inhibition of human NCI-H522 cells at 10 uM after 48 hrs by sulforhodamine B assay; format: functional
[45] = test system: MCF7; test: Growth inhibition of human MCF7 cells at 10 uM after 48 hrs by sulforhodamine B assay; format: functional
[46] = test system: HCC 2998; test: Growth inhibition of human HCC2998 cells at 10 uM after 48 hrs by sulforhodamine B assay; format: functional
[47] = test system: 786-0; test: Growth inhibition of human 786-0 cells at 10 uM after 48 hrs by sulforhodamine B assay; format: functional; conditions: 786-0, 48 h, read-out: GI
[48] = test system: SK-MEL-2; test: Growth inhibition of human SK-MEL-2 cells at 10 uM after 48 hrs by sulforhodamine B assay; format: functional
[49] = test system: HCT-116; test: Growth inhibition of human HCT116 cells at 10 uM after 48 hrs by sulforhodamine B assay; format: functional; conditions: HCT-116, 48 h, read-out: GI
[50] = test system: CAKI-1; test: Growth inhibition of human CAKI-1 cells at 10 uM after 48 hrs by sulforhodamine B assay; format: functional
[51] = test system: OVCAR-5; test: Growth inhibition of human OVCAR5 cells at 10 uM after 48 hrs by sulforhodamine B assay; format: functional
[52] = test system: SF-268; test: Growth inhibition of human SF268 cells at 10 uM after 48 hrs by sulforhodamine B assay; format: functional; conditions: SF-268, 48 h, read-out: GI
[53] = test system: MOLT-4; test: Growth inhibition of human MOLT4 cells at 10 uM after 48 hrs by sulforhodamine B assay; format: functional; conditions: MOLT-4, 48 h, read-out: GI
[54] = test system: OVCAR-3; test: Growth inhibition of human OVCAR3 cells at 10 uM after 48 hrs by sulforhodamine B assay; format: functional
[55] = test system: MDA-MB-231; test: Growth inhibition of human MDA-MB-231 cells at 10 uM after 48 hrs by sulforhodamine B assay; format: functional
[56] = test system: UACC-62; test: Growth inhibition of human UACC62 cells at 10 uM after 48 hrs by sulforhodamine B assay; format: functional
[57] = test system: MDA-MB-468; test: Growth inhibition of human MDA-MB-468 cells at 10 uM after 48 hrs by sulforhodamine B assay; format: functional

`NS(=O)(=O)c1cnccc1N1CCN(Cc2ccccc2)CC1` was tested, and the “growth inhibition (GI)” value [1] was “inactive”, the “growth inhibition (GI)” value [2] was “inactive” and the “growth inhibition (GI)” value [3] was “inactive”. The “growth inhibition (GI)” value [4] was “inactive”, the inhibition of growth at 10 µM [5] was 3% and the “growth inhibition (GI)” value [6] was “inactive”. For the same compound, the “growth inhibition (GI)” value [7] was “inactive”, the “growth inhibition (GI)” value [8] was “inactive” and the “growth inhibition (GI)” value [9] was “inactive”. The “growth inhibition (GI)” value [10] was “inactive”, the “growth inhibition (GI)” value [11] was “inactive” and the “growth inhibition (GI)” value [12] was “inactive”. For the same compound, the inhibition of growth at 10 µM [13] was 5%, the “growth inhibition (GI)” value [14] was “inactive” and the “growth inhibition (GI)” value [15] was “inactive”. For the same compound, the “growth inhibition (GI)” value [16] was “inactive”, the “growth inhibition (GI)” value [17] was “inactive” and the “growth inhibition (GI)” value [18] was “inactive”. The “growth inhibition (GI)” value [19] was “inactive”, the “growth inhibition (GI)” value [20] was “inactive” and the inhibition of growth at 10 µM [21] was 13%. For the same compound, the inhibition of growth at 10 µM [22] was 1%, the inhibition of growth at 10 µM [23] was 14% and the “growth inhibition (GI)” value [24] was “inactive”. The “growth inhibition (GI)” value [25] was “inactive”, the inhibition of growth at 10 µM [26] was 8% and the “growth inhibition (GI)” value [27] was “inactive”. For the same compound, the “growth inhibition (GI)” value [28] was “inactive”, the inhibition of growth at 10 µM [29] was 2% and the inhibition of growth at 10 µM [30] was 6%. The “growth inhibition (GI)” value [31] was “inactive”, the inhibition of growth at 10 µM [32] was 1% and the “growth inhibition (GI)” value [33] was “inactive”. The “growth inhibition (GI)” value [34] was “inactive”, the inhibition of growth at 10 µM [35] was 1% and the inhibition of growth at 10 µM [36] was 7%. The “growth inhibition (GI)” value [37] was “inactive”, the inhibition of growth at 10 µM [38] was 4% and the inhibition of growth at 10 µM [39] was 1%. For the same compound, the Ki [40] was 45.1 nM, the “growth inhibition (GI)” value [41] was “inactive” and the “growth inhibition (GI)” value [42] was “inactive”. The inhibition of growth at 10 µM [43] was 9%, the “growth inhibition (GI)” value [44] was “inactive” and the “growth inhibition (GI)” value [45] was “inactive”. The “growth inhibition (GI)” value [46] was “inactive”, the inhibition of growth at 10 µM [47] was 6% and the “growth inhibition (GI)” value [48] was “inactive”. The inhibition of growth at 10 µM [49] was 6%, the “growth inhibition (GI)” value [50] was “inactive” and the “growth inhibition (GI)” value [51] was “inactive”. The inhibition of growth at 10 µM [52] was 3%, the inhibition of growth at 10 µM [53] was 5% and the “growth inhibition (GI)” value [54] was “inactive”. For the same compound, the “growth inhibition (GI)” value [55] was “inactive”, the “growth inhibition (GI)” value [56] was “inactive” and the “growth inhibition (GI)” value [57] was “inactive”.
